In US8609661B2, “Pyrimido-pyrrolo-quinoxalinedione inhibitors of cystic fibrosis transmembrane conductance regulator protein and uses therefor” (The Regents of the University of California, priority 2009, dated 2013) one finds IC50 and inhibition data, which are given here for five compounds.

The target in one experiment is CFTR (Homo sapiens, UniProt P13569). As to conditions: literature; depending on cell type and membrane potential; read-out: IC50 for CFTR chloride conductance block; cited from earlier work.
CFTR, sequence (P13569 whole entry, species assumed): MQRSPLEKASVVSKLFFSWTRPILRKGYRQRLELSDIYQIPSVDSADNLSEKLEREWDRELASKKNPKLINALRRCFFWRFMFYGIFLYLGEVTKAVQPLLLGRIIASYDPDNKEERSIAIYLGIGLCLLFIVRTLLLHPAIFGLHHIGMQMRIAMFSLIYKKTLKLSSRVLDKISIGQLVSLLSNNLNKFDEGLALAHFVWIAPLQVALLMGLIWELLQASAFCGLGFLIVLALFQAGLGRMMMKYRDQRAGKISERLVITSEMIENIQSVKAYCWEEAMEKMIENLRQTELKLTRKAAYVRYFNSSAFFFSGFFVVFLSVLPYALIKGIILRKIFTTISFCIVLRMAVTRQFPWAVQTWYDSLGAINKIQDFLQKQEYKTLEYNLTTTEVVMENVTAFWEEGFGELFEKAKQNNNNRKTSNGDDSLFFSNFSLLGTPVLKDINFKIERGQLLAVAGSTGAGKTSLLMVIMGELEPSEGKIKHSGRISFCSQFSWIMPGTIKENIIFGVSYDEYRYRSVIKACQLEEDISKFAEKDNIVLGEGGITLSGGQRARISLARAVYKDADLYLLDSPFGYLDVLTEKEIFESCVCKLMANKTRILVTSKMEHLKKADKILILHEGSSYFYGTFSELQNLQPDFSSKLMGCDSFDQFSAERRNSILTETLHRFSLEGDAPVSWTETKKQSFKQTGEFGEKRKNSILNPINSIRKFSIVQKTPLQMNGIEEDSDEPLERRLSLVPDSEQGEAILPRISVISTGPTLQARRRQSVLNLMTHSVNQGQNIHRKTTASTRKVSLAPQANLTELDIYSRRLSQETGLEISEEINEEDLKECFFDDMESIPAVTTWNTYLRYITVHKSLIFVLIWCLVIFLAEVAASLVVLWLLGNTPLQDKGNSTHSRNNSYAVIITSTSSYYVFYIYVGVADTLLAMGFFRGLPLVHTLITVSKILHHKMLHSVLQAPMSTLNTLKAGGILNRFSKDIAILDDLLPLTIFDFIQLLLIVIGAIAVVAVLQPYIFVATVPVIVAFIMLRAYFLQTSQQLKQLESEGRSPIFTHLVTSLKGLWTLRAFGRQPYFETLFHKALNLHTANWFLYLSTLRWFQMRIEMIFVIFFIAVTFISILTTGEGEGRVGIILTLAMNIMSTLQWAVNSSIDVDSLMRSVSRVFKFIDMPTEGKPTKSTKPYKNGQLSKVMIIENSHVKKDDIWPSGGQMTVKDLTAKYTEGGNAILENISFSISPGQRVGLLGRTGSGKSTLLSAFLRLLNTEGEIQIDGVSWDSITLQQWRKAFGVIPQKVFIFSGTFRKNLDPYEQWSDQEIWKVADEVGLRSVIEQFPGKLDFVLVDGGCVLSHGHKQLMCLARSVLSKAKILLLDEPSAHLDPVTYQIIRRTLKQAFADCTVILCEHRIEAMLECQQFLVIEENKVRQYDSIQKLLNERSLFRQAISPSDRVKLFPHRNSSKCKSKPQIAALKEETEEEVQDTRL
The target in another experiment is T1, human wildtype CFTR (Homo sapiens, UniProt P13569).
T1 construct: expressed in transfected cells; host or cells: Fischer rat thyroid (FRT) cells
T1 sequence (P13569 whole entry): as the sequence (P13569 whole entry, species assumed) above
The experiment can be described thus: Fluorescence platereader assay of CFTR-mediated iodide influx (YFP quenching) in FRT cells. It counts as cell-based. As to conditions: FRT, Table 2, screening; for inhibition at 5 µM: read-out: % Inhibition at 5 μM; for inhibition at 25 µM: read-out: % Inhibition at 25 μM. In outline: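 Fischer rat thyroid cells co-expressing human wildtype CFTR and the YFP-H148Q/1152L halide sensor were seeded at 20,000 cells per well in 96-well black-walled plates and assayed 48 h later at confluence. After PBS washes and a 15 min incubation, CFTR was maximally activated with an agonist mixture. Fluorescence was recorded for 2 s before and 10 s after adding 160 μL iodide-substituted PBS, and iodide influx rates came from non-linear regression.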

In general, IC50 refers to the midpoint of a concentration-inhibition curve. In the case of `O=C(CNc1ccc2ccccc2c1)N/N=C/c1cc(Br)c(O)c(Br)c1O` [GlyH-101], the half-maximal inhibitory concentration (IC50) at CFTR is ~5 µM. By inhibition is commonly meant the relative decrease from the control value, in per cent. Regarding `Cc1cc2c(cc1C)-n1c(-c3ccccc3)c3c(=O)n(C)c(=O)n(C)c3c1C(c1ccco1)N2` (stereo not drawn) [PPQ-107, 2,3,7,9-Tetramethyl-11-phenyl-6-(furan-2-yl)-5,6-dihydro-pyrimido[4′,5′-3,4]pyrrolo[1,2-a]quinoxaline-8,10-(7H,9H)-dione], on human wildtype CFTR, the inhibition at 5 µM amounted to 24% and the inhibition at 25 µM stood at 87%. For `Cc1cc2c(cc1C)-n1c(-c3ccccc3)c3c(=O)n(C)c(=O)n(C)c3c1C(c1ccc(O)cc1O)N2` (stereo not drawn) [PPQ-235, 2,3,7,9-Tetramethyl-11-phenyl-6-(2,4-dihydroxyphenyl)-5,6-dihydro-pyrimido[4′,5′-3,4]pyrrolo[1,2-a]quinoxaline-8,10-(7H,9H)-dione], in that order: 12% and 80%. For the compound `COc1ccc(-c2c3c(=O)n(C)c(=O)n(C)c3c3n2-c2ccccc2NC3c2cccc(F)c2F)cc1` (stereo not drawn) [PPQ-252, 7,9-Dimethyl-11-(4-methoxyphenyl)-6-(2,3-difluorophenyl)-5,6-dihydro-pyrimido[4′,5′-3,4]pyrrolo[1,2-a]quinoxaline-8,10-(7H,9H)-dione], on human wildtype CFTR, the inhibition at 5 µM is < 10% and the inhibition at 25 µM is 78%. Take `Cc1ccccc1-c1c2c(=O)n(C)c(=O)n(C)c2c2n1-c1ccccc1NC2c1ccco1` (stereo not drawn) [PPQ-108, 7,9-Dimethyl-11-(2-methylphenyl)-6-(furan-2-yl)-5,6-dihydro-pyrimido[4′,5′-3,4]pyrrolo[1,2-a]quinoxaline-8,10-(7H,9H)-dione]: on human wildtype CFTR, the inhibition at 5 µM turned out to be 18% and the inhibition at 25 µM worked out at 70%.
